Entries after “also recorded” stand apart in the source; their conditions may differ.
Columns and labels:
[1] = system: NCI-H929 multiple myeloma cell line; assay: Cell viability MTS assay, NCI-H929; assay type: cell-based; details: Homo sapiens, 48 hours, read-out: EC50, cell killing in NCI-H929
Experimental: The lymphoid derived cell lines DHL-6 and DHL-10 were obtained from Anthony Letai of the Dana Father Cancer Research Institute, Boston, Mass. The […] derived cell line NCP-H929 was obtained irons, the NIH/NCI cell repository. AML-3 cells were obtained from Dr. Michael Andreef (MD Anderson Cancer Center, Houston, Tex.). Cells were grown in RPMI 1640 medium (GIBCO-BRL) supplemented with Pen-strep-glutamine (Gibco 10378) and 5% fetal bovine serum.
Cells were expanded in tissue culture in appropriate media and then subcultured into 96-well plates at a seeding density of 20,000-40,000 cells per well, and cells were treated with one or more compounds that were titrated info appropriate medium with FCS. Cell lines were treated with compound A at concentrations ranging from 25 μM to 25 nM. The BH3-mimetic obatoclax (Nguyen M et al. (2007), Proc. Natl. Acad. Sci. USA 104:19512-19517) was also tested against the SUDHL-6, SUDHL-10, and NCI-H929 cell lines. Cells were treated for 48 hours and scored for viability using the MTS assay (Promega). Growth inhibition was indicated as a percentage of control cell growth. Growth was determined by measuring the A570 (control cells)—A570 (treated cells)/A570 (control cells). EC50 values were calculated using Graphpad Prizm software.

[2] = target: T1, Mcl-1 (Homo sapiens, UniProt Q07820); assay: Fluorescence polarization assay, Bim BH3 peptide binding to GST-Mcl-1
T1 construct: made in house; host or cells: E. coli
T1 sequence (Q07820 whole entry): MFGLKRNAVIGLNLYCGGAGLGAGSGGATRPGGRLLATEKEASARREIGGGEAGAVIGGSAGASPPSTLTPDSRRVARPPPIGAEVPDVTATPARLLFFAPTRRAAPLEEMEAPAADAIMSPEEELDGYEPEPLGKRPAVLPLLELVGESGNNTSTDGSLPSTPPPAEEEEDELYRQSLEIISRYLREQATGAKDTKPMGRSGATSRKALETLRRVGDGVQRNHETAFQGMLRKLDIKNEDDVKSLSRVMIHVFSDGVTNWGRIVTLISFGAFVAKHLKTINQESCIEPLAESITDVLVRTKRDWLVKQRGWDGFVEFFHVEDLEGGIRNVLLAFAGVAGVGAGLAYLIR
Description: A nineteen amino acid peptide, corresponding to the BH3 domain of Bim, with the sequence FITC-GGGIAQELRRIGDEFNAY (SEQ ID NO: 1) was labeled with the tluorophore FITC according to the manufacturer's instructions (Molecular Probes, Eugene, Oreg.). This sequence was identified as being able to bind to purified Bcl-xL protein (Sattler et al. (1997) Science 275(5302): 983-86) and to have biological activity in cells (Holinger et al. J. Biol. Chem. 274; 13298-1330).
In addition, recombinant GST -Mcl-1 and GST-Bcl-xL fusion proteins were generated in E.coli and purified using glutathione-sepharose beads using conventional techniques known to those skilled in the fields of biochemistry and molecular biology, (methods for preparation are described in Strategies for Protein Purification and Characterization, Marshak, D, Kadonga, J, Burgess R, Knuth, M, Brennan, W, Sue-Hwa, L, CSH press, Cold Spring Harbor, N.Y.). Binding of the recombinant proteins to the fluorescent Bim BH3 domain was confirmed by titration of increasing concentrations of the recombinant proteins against a constant amount of labeled Bim peptide (16.65 nM). Quantitation of binding was accomplished by FP assay with mP measurements made on the Analyst-GT reader (Molecular Devices, Sunnyvale, Calif.).
Further, the ability of compound A to disrupt the interaction between the fluorescent Bim BH3 peptide and the two fusion proteins was assessed using a fluorescence polarization assay. The Bim peptide (in solution at 4 nano-Molar) and either GST-Mcl-1 (in solution at 12.5 nM) or GST-Bcl-xL (in solution at 11.8 nM) were first combined together in phosphate buttered saline buffer, and then the compound solution in DMSO was added to final concentrations ranging from 10 μM to 0.1 nM). Normally the unbound Bim polypeptide results in polarization of 5 mP units. Upon binding of the GST-Bcl-xL and GST-Mcl-1 fusion protein, polarization increased to 100 mP units.
(§1) Experiments are performed using the fluorescence polarization assay as described in Example 2. Either Bcl-xL or Mcl-1 fusion proteins were titrated and maximum mp shift indicate binding concentrations for drug titration studies, as described in Example 2. Compound II-19, was titrated from 10 μM to 0.1 nM in 2 fold serial dilution into the peptide/protein solution. The IC50 for blocking each BH3 peptide from Mcl-1 are assessed using FP, as described in Example 2.
as §1, with “Either GST-Bcl-xL” for “Either Bcl-xL”, “or GST-Mcl-1” for “or Mcl-1”, “Compound II-20,” for “Compound II-19,”, “in 2-fold” for “in 2 fold”

[3] = system: mitochondria in semi-permeabilized SUDHL-6 cells; assay: In situ mitochondrial assay (cytochrome c release), SUDHL-6; assay type: cell-based; details: SUDHL-6 (DHL-6), Bax/Bak functional, 10 uM
Description: The on-target activity of compound II-19 was validated. Changes in mitochondrial integrity were observed utilizing anti-cytochrome c conjugated to Alcxa488 (BD). When the mitochondria are intact, they retain cytochrome c and have bright, punctate staining with the antibody whereas cells with compromised mitochondrial integrity will lose cytochrome c and will not stain with the antibody. This can be observed by microscopy as well as measured by a shift in fluorescence on the FL1 channel of a flow cytometer.
The selective response of mitochondria in semi-permeabilized cell lines to the compounds was observed. The assay was adapted from (Campos et al. (2006) Cytometry Part A. 69(A):515-523).
Suspension cell lines SUDHL10 and SUDHL6 were grown in RPMI, washed once in 1xPBS and re-suspended at a concentration of 2e6/ml in assay buffer with 0.0025% Digitonin. Assay buffer; 300 mM Trehalose, 10 mM HEPES-KOH pH 7.7, 80 mM KCl, 1 mM EGTA, 1 mM EDTA, 0.1% BSA, 5 mM Succinate. Cells are incubated with test and control compounds at 10^6 cells/treatment for 1 hour at room temperature. […] Cytochrome c loss was measured by microscopy. At least 100 cells per treatment were counted and scored as positive for cytochrome c loss if they lacked staining. In both methods DMSO was calculated as 0% cytochrome c loss and the Bim response for DHL6 was used to determine 100% cytochrome c loss.

With COC(=O)c1ccc(O)c2nc3c(C=O)c(O)c(-c4c(O)c(C=O)c5nc6c(O)ccc(C(=O)OC)c6nc5c4O)c(O)c3nc12 [II-19, dimethyl 4,4′-diformyl-1,1′,3,3′,6,6′-hexahydroxy-[2,2′-biphenazine]-9,9′-dicarboxylate] the EC50 [1] was 8 µM, the IC50 ([2]; fluorescence polarization, Bim-BH3-FITC peptide, GST-Mcl-1, read-out: IC50, inhibition of Bim-BH3 peptide binding to Mcl-1) was 0.007 µM and the “preference for inhibition of Mcl-1 vs. Bcl-xL” value ([2]; ratio of FP IC50 values) was 2 fold. For the same compound, the “cytochrome c release from mitochondria” value [3] was “causes release of cytochrome c; also recorded: direct activity”.
